# Measurements: US8796256B2 (Janssen Pharmaceutica NV, priority 2010, dated 2014)
# Biological target: T1, ERR1 (also known as ERR-α or ERR-1) (Homo sapiens, UniProt P11474)
# T1 sequence (P11474 193-421 limits assumed): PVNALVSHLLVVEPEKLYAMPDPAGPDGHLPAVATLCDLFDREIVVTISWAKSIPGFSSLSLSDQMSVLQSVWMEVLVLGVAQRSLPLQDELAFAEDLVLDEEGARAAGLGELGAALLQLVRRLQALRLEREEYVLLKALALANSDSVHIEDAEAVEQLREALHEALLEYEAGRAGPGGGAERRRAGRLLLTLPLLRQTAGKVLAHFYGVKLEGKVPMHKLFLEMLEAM
# Test: TR-FRET assay (disruption of co-activator peptide binding to ERR1 LBD)
# Type: biochemical
# Settings: 6 nM 6His-ERR1LBD, 6 nM GST-SRC-2 peptide; average of 3 independent experiments
# How it was run: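 His-tagged ERR1 ligand-binding domain and GST-labelled SRC-2 peptide, each 6 nM, equilibrated at 25° C for 4-18 h in Tris pH 8/Hepes/KCl/DTT/delipidated BSA buffer. Compound-induced loss of co-activator binding read as Eu cryptate→XL665 energy transfer; values from hyperbolic curve fits averaged over 3 independent runs.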
row,Compound,EC50
1,"COc1ccc(Cn2ncc3cc(/C=C4\SC(=O)N(CCN5CCCC5)C4=O)ccc32)c(C(F)(F)F)c1 [Compound 17, (5Z)-5-({1-[4-Methoxy-2-(trifluoromethyl)benzyl]-1H-indazol-5-yl}methylidene)-3-(2-pyrrolidin-1-ylethyl)-1,3-thiazolidine-2,4-dione]",46 nM
2,"COc1ccc(Cn2nc(C)c3cc(/C=C4\SC(=O)N(CCN5CCOCC5)C4=O)ccc32)c(C(F)(F)F)c1 [Compound 20, (5Z)-5-({1-[4-Methoxy-2-(trifluoromethyl)benzyl]-3-methyl-1H-indazol-5-yl}methylidene)-3-(2-morpholin-4-ylethyl)-1,3-thiazolidine-2,4-dione]",14 nM
3,"COc1ccc(Cn2ncc3cc(/C=C4\SC(=O)N(CCN5C[C@@H](C)O[C@@H](C)C5)C4=O)ccc32)c(C(F)(F)F)c1 [Compound 21, (5Z)-3-{2-[cis-2,6-Dimethylmorpholin-4-yl]ethyl}-5-({1-[4-methoxy-2-(trifluoromethyl)benzyl]-1H-indazol-5-yl)methylidene)-1,3-thiazolidine-2,4-dione]",9 nM
4,"COc1ccc(Cn2ncc3cc(/C=C4\SC(=O)N(C[C@@H]5CCCN5C)C4=O)ccc32)c(C(F)(F)F)c1 [Compound 23, (5Z)-5-({1-[4-Methoxy-2-(trifluoromethyl)benzyl]-1H-indazol-5-yl}methylidene)-3-{[(2S)-1-methylpyrrolidin-2-yl]methyl}-1,3-thiazolidine-2,4-dione]",45 nM
5,"COc1ccc(Cn2ncc3cc(/C=C4\SC(=O)N(C5CCNCC5)C4=O)ccc32)c(C(F)(F)F)c1 [Compound 26, (5Z)-5-({1-[4-Methoxy-2-(trifluoromethyl)benzyl]-1H-indazol-5-yl}methylidene)-3-piperidin-4-yl-1,3-thiazolidine-2,4-dione]",67 nM
6,"CCN1CCC(N2C(=O)S/C(=C\c3ccc4c(cnn4Cc4ccc(OC)cc4C(F)(F)F)c3)C2=O)CC1 [Compound 28, (5Z)-3-(1-Ethylpiperidin-4-yl)-5-({1-[4-methoxy-2-(trifluoromethyl)benzyl]-1H-indazol-5-yl}methylidene)-1,3-thiazolidine-2,4-dione]",14 nM
7,"CCOc1nn(Cc2ccc(Cl)cc2C(F)(F)F)c2ccc(/C=C3\SC(=O)N(CCN4CCCC4)C3=O)cc12 [Compound 33, (5Z)-5-({1-[4-Chloro-2-(trifluoromethyl)benzyl]-3-ethoxy-1H-indazol-5-yl}methylidene)-3-(2-pyrrolidin-1-ylethyl)-1,3-thiazolidine-2,4-dione]",185 nM
8,"O=C1S/C(=C\c2ccc3c(c2)c(O)nn3Cc2ccc(Cl)cc2C(F)(F)F)C(=O)N1CCN1CCCC1 [Compound 37, (5Z)-5-({1-[4-Chloro-2-(trifluoromethyl)benzyl]-3-oxo-2,3-dihydro-1H-indazol-5-yl}methylidene)-3-(2-pyrrolidin-1-ylethyl)-1,3-thiazolidine-2,4-dione]",290 nM
9,"Cc1nn(Cc2ccc(Cl)cc2C(F)(F)F)c2ccc(/C=C3\SC(=O)N(CCN4CCCC4)C3=O)cc12 [Compound 41, (5Z)-5-({1-[4-Chloro-2-(trifluoromethyl)benzyl]-3-methyl-1H-indazol-5-yl}methylidene)-3-(2-pyrrolidin-1-ylethyl)-1,3-thiazolidine-2,4-dione]",9 nM
10,"CC1(C)OCC(CN2C(=O)S/C(=C\c3ccc4c(cnn4Cc4ccc(Cl)cc4C(F)(F)F)c3)C2=O)O1 (centres unmarked) [Compound 42, (5Z)-5-({1-[4-Chloro-2-(trifluoromethyl)benzyl]-1H-indazol-5-yl}methylidene)-3-[(2,2-dimethyl-1,3-dioxolan-4-yl)methyl]-1,3-thiazolidine-2,4-dione]",46 nM
11,"CC(C)(C)NCCN1C(=O)S/C(=C\c2ccc3c(cnn3Cc3ccc(Cl)cc3C(F)(F)F)c2)C1=O [Compound 46, (5Z)-3-[2-(tert-Butylamino)ethyl]-5-({1-[4-chloro-2-(trifluoromethyl)benzyl]-1H-indazol-5-yl}methylidene)-1,3-thiazolidine-2,4-dione]",19 nM
12,"NCCN1C(=O)S/C(=C\c2ccc3c(cnn3Cc3ccc(Cl)cc3C(F)(F)F)c2)C1=O [Compound 49, 3-(2-Aminoethyl)-(5Z)-5-({1-[4-chloro-2-(trifluoromethyl)benzyl]-1H-indazol-5-yl}methylidene)-1,3-thiazolidine-2,4-dione]",25 nM
13,"NS(=O)(=O)NCCN1C(=O)S/C(=C\c2ccc3c(cnn3Cc3ccc(Cl)cc3C(F)(F)F)c2)C1=O [Compound 50, N-{2-[(5Z)-5-({1-[4-Chloro-2-(trifluoromethyl)benzyl]-1H-indazol-5-yl}methylidene)-2,4-dioxo-1,3-thiazolidin-3-yl]ethyl}sulfamide]",40 nM

# Next, values leading:
row,EC50,Compound
1,20 nM,"CCN(CC)CCN1C(=O)S/C(=C\c2ccc3c(cnn3Cc3ccc(OC)cc3C(F)(F)F)c2)C1=O [Compound 18, (5Z)-3-[2-(Diethylamino)ethyl]-5-({1-[4-methoxy-2-(trifluoromethyl)benzyl]-1H-indazol-5-yl}methylidene)-1,3-thiazolidine-2,4-dione]"
2,12 nM,"COc1ccc(Cn2ncc3cc(/C=C4\SC(=O)N(C5CCC(C(=O)NS(C)(=O)=O)CC5)C4=O)ccc32)c(C(F)(F)F)c1 (centres unmarked) [Compound 24, 4-[(5Z)-5-({1-[4-Methoxy-2-(trifluoromethyl)benzyl]-1H-indazol-5-yl}methylidene)-2,4-dioxo-1,3-thiazolidin-3-yl]-N-(methylsulfonyl) cyclohexanecarboxamide]"
3,16 nM,"COc1ccc(Cn2nc(OC)c3cc(/C=C4\SC(=O)N(CCN5CCOCC5)C4=O)ccc32)c(C(F)(F)F)c1 [Compound 25, (5Z)-5-({3-Methoxy-1-[4-methoxy-2-(trifluoromethyl)benzyl]-1H-indazol-5-yl}methylidene)-3-(2-morpholin-4-ylethyl)-1,3-thiazolidine-2,4-dione]"
4,95 nM,"COc1nn(Cc2ccc(Cl)cc2C(F)(F)F)c2ccc(/C=C3\SC(=O)N(C4CCNCC4)C3=O)cc12 [Compound 29, (5Z)-5-({1-[4-Chloro-2-(trifluoromethyl)benzyl]-3-methoxy-1H-indazol-5-yl}methylidene)-3-piperidin-4-yl-1,3-thiazolidine-2,4-dione]"
5,96 nM,"CCN1CCC(N2C(=O)S/C(=C\c3ccc4c(c3)c(OC)nn4Cc3ccc(Cl)cc3C(F)(F)F)C2=O)CC1 [Compound 30, (5Z)-5-({1-[4-Chloro-2-(trifluoromethyl)benzyl]-3-methoxy-1H-indazol-5-yl}methylidene)-3-(1-ethylpiperidin-4-yl)-1,3-thiazolidine-2,4-dione]"
6,15 nM,"COc1ccc(Cn2ncc3cc(/C=C4\SC(=O)N(C5CCN(S(N)(=O)=O)CC5)C4=O)ccc32)c(C(F)(F)F)c1 [Compound 32, 4-[(5Z)-5-({1-[4-Methoxy-2-(trifluoromethyl)benzyl]-1H-indazol-5-yl}methylidene)-2,4-dioxo-1,3-thiazolidin-3-yl]piperidine-1-sulfonamide]"
7,23 nM,"NS(=O)(=O)N1CCC(N2C(=O)S/C(=C\c3ccc4c(cnn4Cc4ccc(Cl)cc4C(F)(F)F)c3)C2=O)CC1 [Compound 34, 4-[(5Z)-5-({1-[4-Chloro-2-(trifluoromethyl)benzyl]-1H-indazol-5-yl}methylidene)-2,4-dioxo-1,3-thiazolidin-3-yl]piperidine-1-sulfonamide]"
8,43 nM,"Cc1nn(Cc2ccc(Cl)cc2C(F)(F)F)c2ccc(/C=C3\SC(=O)N(CC(=O)NS(=O)(=O)N(C)C)C3=O)cc12 [Compound 39, 2-[(5Z)-5-({1-[4-Chloro-2-(trifluoromethyl)benzyl]-3-methyl-1H-indazol-5-yl}methylidene)-2,4-dioxo-1,3-thiazolidin-3-yl]-N-(dimethylsulfamoyl)acetamide]"
9,16 nM,"O=C1S/C(=C\c2ccc3c(cnn3Cc3ccc(Cl)cc3C(F)(F)F)c2)C(=O)N1CC(O)CO (centres unmarked) [Compound 43, (5Z)-5-({1-[4-Chloro-2-(trifluoromethyl)benzyl]-1H-indazol-5-yl}methylidene)-3-(2,3-dihydroxypropyl)-1,3-thiazolidine-2,4-dione]"
10,72 nM,"Cc1nn(Cc2ccc(Cl)cc2C(F)(F)F)c2ccc(/C=C3\SC(=O)N(CC(=O)NS(C)(=O)=O)C3=O)cc12 [Compound 44, 2-[(5Z)-5-({1-[4-Chloro-2-(trifluoromethyl)benzyl]-3-methyl-1H-indazol-5-yl}methylidene)-2,4-dioxo-1,3-thiazolidin-3-yl]-N-(methylsulfonyl)acetamide]"
11,47 nM,"CC(C)N(CCO)CCN1C(=O)S/C(=C\c2ccc3c(cnn3Cc3ccc(Cl)cc3C(F)(F)F)c2)C1=O [Compound 45, (5Z)-5-({1-[4-Chloro-2-(trifluoromethyl)benzyl]-1H-indazol-5-yl}methylidene)-3-{2-[(2-hydroxyethyl)(1-methylethyl)amino]ethyl}-1,3-thiazolidine-2,4-dione]"
12,17 nM,"CCNCCN1C(=O)S/C(=C\c2ccc3c(cnn3Cc3ccc(Cl)cc3C(F)(F)F)c2)C1=O [Compound 47, (5Z)-5-({1-[4-Chloro-2-(trifluoromethyl)benzyl]-1H-indazol-5-yl}methylidene)-3-[2-(ethylamino)ethyl]-1,3-thiazolidine-2,4-dione]"
13,19 nM,"CC(C)NCCN1C(=O)S/C(=C\c2ccc3c(cnn3Cc3ccc(Cl)cc3C(F)(F)F)c2)C1=O [Compound 48, (5Z)-5-({1-[4-Chloro-2-(trifluoromethyl)benzyl]-1H-indazol-5-yl}methylidene)-3-{2-[(1-methylethyl)amino]ethyl}-1,3-thiazolidine-2,4-dione]"
